Reference: PubChem BioAssay AID2060503 (Molecular Pharmacology Branch, DTP, NCI, 2025)

Tested on: 817829-284-R-J1-PDC complex spheroids, viability
Experiment: Anticancer human tumor 817829-284-R-J1-PDC patient-derived colon adenocarcinoma cell line growth inhibition [GQUAD]
Details: second compound 1 µM; first compound 0.1 µM; hits give low values
How it was run: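 Tumor cells were grown as complex spheroids with HUVEC endothelial cells and mesenchymal stem cells as stroma. G-quadruplex stabilizers were combined with targeted agents over half-log dilutions from near the clinical Cmax, or from 10 microM.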
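Also: spheroids exposed to agents for 7 days before readout; percent viability relative to DMSO vehicle control taken as 100%.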

**Q.** With `O=C(NO)c1cnc(N2CCN(S(=O)(=O)c3ccc4ccccc4c3)CC2)nc1` + Cc1[nH]c2ccc(F)cc2c1-c1nc2c3cccnc3c3ncccc3c2[nH]1 as the compound, how does the viability, T/C read?
**A.** Its viability, T/C is 106%.

**Q.** `O=c1[nH]cc(F)c(=O)[nH]1` + Cc1[nH]c2ccc(F)cc2c1-c1nc2c3cccnc3c3ncccc3c2[nH]1 was tested. Which viability, T/C did it give?
**A.** Its viability, T/C is 113%.

Same assay, conditions: second compound 1 µM; first compound 0.316 µM; hits give low values

**Q.** How did the viability, T/C turn out when `C#Cc1c(F)ccc2cc(O)cc(-c3ncc4c(N5CC6CCC(C5)N6)nc(OCC56CCCN5CC(F)C6)nc4c3F)c12` (configuration not stated) + Cc1[nH]c2ccc(F)cc2c1-c1nc2c3cccnc3c3ncccc3c2[nH]1 was run?
**A.** Its viability, T/C is 103%.

**Q.** Which viability, T/C does the source give for `C=CCn1c(=O)c2cnc(Nc3ccc(N4CCN(C)CC4)cc3)nc2n1-c1cccc(C(C)(C)O)n1` + Cc1[nH]c2ccc(F)cc2c1-c1nc2c3cccnc3c3ncccc3c2[nH]1 here?
**A.** The viability, T/C was 26.2%.

**Q.** With `CC(C)(O)C1CCC(Nc2ccc3ncc(-c4cccc(C(F)(F)F)c4)n3n2)CC1` (configuration not stated) + Cc1[nH]c2ccc(F)cc2c1-c1nc2c3cccnc3c3ncccc3c2[nH]1 as the compound, how does the viability, T/C read?
**A.** The viability, T/C was 78.9%.

**Q.** Which viability, T/C does the source give for `Cc1[nH]c2ccccc2c1CCNCc1ccc(/C=C/C(=O)NO)cc1` + Cc1[nH]c2ccc(F)cc2c1-c1nc2c3cccnc3c3ncccc3c2[nH]1 here?
**A.** The viability, T/C was 0.1%.

**Q.** How did the viability, T/C turn out when `Nc1ccn(C2OC(CO)C(O)C2(F)F)c(=O)n1` (configuration not stated) + Cc1[nH]c2ccc(F)cc2c1-c1nc2c3cccnc3c3ncccc3c2[nH]1 was run?
**A.** The viability, T/C was 5.47%.

**Q.** For `O=C(NO)c1cnc(N2CCN(S(=O)(=O)c3ccc4ccccc4c3)CC2)nc1` + Cc1[nH]c2ccc(F)cc2c1-c1nc2c3cccnc3c3ncccc3c2[nH]1, which viability, T/C is on record?
**A.** Its viability, T/C is 1.91%.

**Q.** Which viability, T/C does the source give for `O=c1[nH]cc(F)c(=O)[nH]1` + Cc1[nH]c2ccc(F)cc2c1-c1nc2c3cccnc3c3ncccc3c2[nH]1 here?
**A.** The viability, T/C was 113%.

Same assay, conditions: second compound 1 µM; first compound 1 µM; hits give low values

**Q.** How did the viability, T/C turn out when `C#Cc1c(F)ccc2cc(O)cc(-c3ncc4c(N5CC6CCC(C5)N6)nc(OCC56CCCN5CC(F)C6)nc4c3F)c12` (configuration not stated) + Cc1[nH]c2ccc(F)cc2c1-c1nc2c3cccnc3c3ncccc3c2[nH]1 was run?
**A.** The viability, T/C was 93%.

**Q.** How did the viability, T/C turn out when `C=CCn1c(=O)c2cnc(Nc3ccc(N4CCN(C)CC4)cc3)nc2n1-c1cccc(C(C)(C)O)n1` + Cc1[nH]c2ccc(F)cc2c1-c1nc2c3cccnc3c3ncccc3c2[nH]1 was run?
**A.** Its viability, T/C is 8.6%.

**Q.** `CC(C)(O)C1CCC(Nc2ccc3ncc(-c4cccc(C(F)(F)F)c4)n3n2)CC1` (configuration not stated) + Cc1[nH]c2ccc(F)cc2c1-c1nc2c3cccnc3c3ncccc3c2[nH]1 was tested. Which viability, T/C did it give?
**A.** Its viability, T/C is 30.9%.

**Q.** With `Nc1ccn(C2OC(CO)C(O)C2(F)F)c(=O)n1` (configuration not stated) + Cc1[nH]c2ccc(F)cc2c1-c1nc2c3cccnc3c3ncccc3c2[nH]1 as the compound, how does the viability, T/C read?
**A.** The viability, T/C was 5.85%.

**Q.** With `O=C(NO)c1cnc(N2CCN(S(=O)(=O)c3ccc4ccccc4c3)CC2)nc1` + Cc1[nH]c2ccc(F)cc2c1-c1nc2c3cccnc3c3ncccc3c2[nH]1 as the compound, how does the viability, T/C read?
**A.** The viability, T/C was 0.1%.

**Q.** `O=c1[nH]cc(F)c(=O)[nH]1` + Cc1[nH]c2ccc(F)cc2c1-c1nc2c3cccnc3c3ncccc3c2[nH]1 was tested. Which viability, T/C did it give?
**A.** The viability, T/C was 67.3%.

Same assay, conditions: second compound 1 µM; first compound 3.16 µM; hits give low values

**Q.** Which viability, T/C does the source give for `C#Cc1c(F)ccc2cc(O)cc(-c3ncc4c(N5CC6CCC(C5)N6)nc(OCC56CCCN5CC(F)C6)nc4c3F)c12` (configuration not stated) + Cc1[nH]c2ccc(F)cc2c1-c1nc2c3cccnc3c3ncccc3c2[nH]1 here?
**A.** The viability, T/C was 94.5%.

**Q.** Which viability, T/C does the source give for `C=CCn1c(=O)c2cnc(Nc3ccc(N4CCN(C)CC4)cc3)nc2n1-c1cccc(C(C)(C)O)n1` + Cc1[nH]c2ccc(F)cc2c1-c1nc2c3cccnc3c3ncccc3c2[nH]1 here?
**A.** Its viability, T/C is 6.38%.

**Q.** How did the viability, T/C turn out when `CC(C)(O)C1CCC(Nc2ccc3ncc(-c4cccc(C(F)(F)F)c4)n3n2)CC1` (configuration not stated) + Cc1[nH]c2ccc(F)cc2c1-c1nc2c3cccnc3c3ncccc3c2[nH]1 was run?
**A.** Its viability, T/C is 8.2%.

**Q.** `Nc1ccn(C2OC(CO)C(O)C2(F)F)c(=O)n1` (configuration not stated) + Cc1[nH]c2ccc(F)cc2c1-c1nc2c3cccnc3c3ncccc3c2[nH]1 was tested. Which viability, T/C did it give?
**A.** The viability, T/C was 5.57%.

**Q.** How did the viability, T/C turn out when `O=C(NO)c1cnc(N2CCN(S(=O)(=O)c3ccc4ccccc4c3)CC2)nc1` + Cc1[nH]c2ccc(F)cc2c1-c1nc2c3cccnc3c3ncccc3c2[nH]1 was run?
**A.** Its viability, T/C is 0.08%.

**Q.** With `O=c1[nH]cc(F)c(=O)[nH]1` + Cc1[nH]c2ccc(F)cc2c1-c1nc2c3cccnc3c3ncccc3c2[nH]1 as the compound, how does the viability, T/C read?
**A.** Its viability, T/C is 39.1%.

Same assay, conditions: second compound 1 µM; first compound 10 µM; hits give low values

**Q.** Which viability, T/C does the source give for `C#Cc1c(F)ccc2cc(O)cc(-c3ncc4c(N5CC6CCC(C5)N6)nc(OCC56CCCN5CC(F)C6)nc4c3F)c12` (configuration not stated) + Cc1[nH]c2ccc(F)cc2c1-c1nc2c3cccnc3c3ncccc3c2[nH]1 here?
**A.** Its viability, T/C is 4.87%.

**Q.** For `C=CCn1c(=O)c2cnc(Nc3ccc(N4CCN(C)CC4)cc3)nc2n1-c1cccc(C(C)(C)O)n1` + Cc1[nH]c2ccc(F)cc2c1-c1nc2c3cccnc3c3ncccc3c2[nH]1, which viability, T/C is on record?
**A.** Its viability, T/C is 4.1%.

**Q.** With `CC(C)(O)C1CCC(Nc2ccc3ncc(-c4cccc(C(F)(F)F)c4)n3n2)CC1` (configuration not stated) + Cc1[nH]c2ccc(F)cc2c1-c1nc2c3cccnc3c3ncccc3c2[nH]1 as the compound, how does the viability, T/C read?
**A.** The viability, T/C was 32.7%.

**Q.** With `Nc1ccn(C2OC(CO)C(O)C2(F)F)c(=O)n1` (configuration not stated) + Cc1[nH]c2ccc(F)cc2c1-c1nc2c3cccnc3c3ncccc3c2[nH]1 as the compound, how does the viability, T/C read?
**A.** Its viability, T/C is 3.28%.

**Q.** `O=C(NO)c1cnc(N2CCN(S(=O)(=O)c3ccc4ccccc4c3)CC2)nc1` + Cc1[nH]c2ccc(F)cc2c1-c1nc2c3cccnc3c3ncccc3c2[nH]1 was tested. Which viability, T/C did it give?
**A.** Its viability, T/C is 0.14%.

**Q.** For `O=c1[nH]cc(F)c(=O)[nH]1` + Cc1[nH]c2ccc(F)cc2c1-c1nc2c3cccnc3c3ncccc3c2[nH]1, which viability, T/C is on record?
**A.** Its viability, T/C is 32.2%.

Same assay, conditions: second compound 3.16 µM; first compound 0.000999 µM; hits give low values

**Q.** Which viability, T/C does the source give for `Cc1[nH]c2ccccc2c1CCNCc1ccc(/C=C/C(=O)NO)cc1` + Cc1[nH]c2ccc(F)cc2c1-c1nc2c3cccnc3c3ncccc3c2[nH]1 here?
**A.** The viability, T/C was 71.3%.

Same assay, conditions: second compound 3.16 µM; first compound 0.00316 µM; hits give low values

**Q.** How did the viability, T/C turn out when `Cc1[nH]c2ccccc2c1CCNCc1ccc(/C=C/C(=O)NO)cc1` + Cc1[nH]c2ccc(F)cc2c1-c1nc2c3cccnc3c3ncccc3c2[nH]1 was run?
**A.** Its viability, T/C is 99.3%.

Same assay, conditions: second compound 3.16 µM; first compound 0.00999 µM; hits give low values

**Q.** Which viability, T/C does the source give for `Cc1[nH]c2ccccc2c1CCNCc1ccc(/C=C/C(=O)NO)cc1` + Cc1[nH]c2ccc(F)cc2c1-c1nc2c3cccnc3c3ncccc3c2[nH]1 here?
**A.** The viability, T/C was 65.2%.

Same assay, conditions: second compound 3.16 µM; first compound 0.0316 µM; hits give low values

**Q.** With `C#Cc1c(F)ccc2cc(O)cc(-c3ncc4c(N5CC6CCC(C5)N6)nc(OCC56CCCN5CC(F)C6)nc4c3F)c12` (configuration not stated) + Cc1[nH]c2ccc(F)cc2c1-c1nc2c3cccnc3c3ncccc3c2[nH]1 as the compound, how does the viability, T/C read?
**A.** Its viability, T/C is 3.89%.

**Q.** With `C=CCn1c(=O)c2cnc(Nc3ccc(N4CCN(C)CC4)cc3)nc2n1-c1cccc(C(C)(C)O)n1` + Cc1[nH]c2ccc(F)cc2c1-c1nc2c3cccnc3c3ncccc3c2[nH]1 as the compound, how does the viability, T/C read?
**A.** The viability, T/C was 46.1%.

**Q.** `CC(C)(O)C1CCC(Nc2ccc3ncc(-c4cccc(C(F)(F)F)c4)n3n2)CC1` (configuration not stated) + Cc1[nH]c2ccc(F)cc2c1-c1nc2c3cccnc3c3ncccc3c2[nH]1 was tested. Which viability, T/C did it give?
**A.** Its viability, T/C is 3.3%.

**Q.** With `Cc1[nH]c2ccccc2c1CCNCc1ccc(/C=C/C(=O)NO)cc1` + Cc1[nH]c2ccc(F)cc2c1-c1nc2c3cccnc3c3ncccc3c2[nH]1 as the compound, how does the viability, T/C read?
**A.** The viability, T/C was 38.8%.

**Q.** With `Nc1ccn(C2OC(CO)C(O)C2(F)F)c(=O)n1` (configuration not stated) + Cc1[nH]c2ccc(F)cc2c1-c1nc2c3cccnc3c3ncccc3c2[nH]1 as the compound, how does the viability, T/C read?
**A.** Its viability, T/C is 12.7%.

**Q.** Which viability, T/C does the source give for `O=C(NO)c1cnc(N2CCN(S(=O)(=O)c3ccc4ccccc4c3)CC2)nc1` + Cc1[nH]c2ccc(F)cc2c1-c1nc2c3cccnc3c3ncccc3c2[nH]1 here?
**A.** The viability, T/C was 9.69%.

**Q.** `O=c1[nH]cc(F)c(=O)[nH]1` + Cc1[nH]c2ccc(F)cc2c1-c1nc2c3cccnc3c3ncccc3c2[nH]1 was tested. Which viability, T/C did it give?
**A.** The viability, T/C was 106%.
